Here are results for seven compounds from US6235769A, “Methods of preventing and treating neurological disorders with compounds that modulate the function of the C-RET receptor protein tyrosine kinase” (Sugen, Inc., priority 1998, dated 2001).

Holding throughout (assay type): cell-based
One experiment relates to FLK-1 receptor. As to the kind of experiment: FLK-1 ELISA, catalytic activity of the FLK-1 receptor in FLK-1/NIH3T3 cells. The settings on record: concentration that yielded a two-hundred percent increase in catalytic activity in the FLK-1 ELISA. On the procedure: An enzyme linked immunosorbant assay (ELISA) can be conducted to measure the catalytic activity of the FLK-1 receptor and more specifically, the inhibition or activation of indolinone compounds of the catalytic activity of the FLK-1 receptor. The following assay was conducted to measure catalytic activity of the FLK-1 receptor in FLK-l/NIH3T3 cells.
One skilled in the art can adapt such a procedure to other receptor tyrosine protein kinases to identify compounds that modulate the function of the receptor.
This type of assay can be developed for nearly any RPTK using well known techniques utilized by persons of ordinary skill in the art. The FLK-1/NIH3T3 cell lines are also created by techniques well known to those skilled in the art. The NIH3T3 cells were stably transfected with gene constructs containing the FLK-1 gene. The nucleic acid vectors used for this type of procedure are commonly and commercially available to those skilled in the art. The methods of cloning the genes of interest into these nucleic acid vectors and the methods of transfecting these nucleic acid constructs into cells are also well known to those skilled in the art. Sambrook, Fritsch, Maniatis, Molecular Cloning, A Laboratory Manual 2nd Ed., Cold Spring Harbor Laboratory Press, 1989.
1. Coat Corning 96-well ELISA plates with 1.0 μg per well Cappel Anti-rabbit IgG antibody in 0.1 M Na2 CO3 pH 9.6. Bring final volume to 150 μL per well. Coat plates overnight at 4° C. Plates can be kept up to two weeks when stored at 4° C.
2. Grow cells in Growth media (DMEM, supplemental with 2.0 mM L-Glutamine, 10% FBS) in suitable culture dishes until confluent at 37° C., 5% CO2.
3. Harvest cells by trypsinization and seed in Corning 25850 polystyrene 96-well roundbottom cell plates, 25.000 cells/well in 200 μL of growth media.
4. Grow cells at least one day at 37° C., 5% CO2.
5. Wash cells with D-PBS 1×.
6. Add 200 μL/well of starvation media (DMEM, 2.0 mM 1-Glutamine, 0.1% FBS). Incubate overnight at 37° C., 5% CO2.
7. Dilute Compounds/Extracts 1:20 in polypropylene 96 well plates using starvation media. Dilute dimethylsulfoxide 1:20 for use in control wells.
8. Remove starvation media from 96 well cell culture plates and add 162 μL of fresh starvation media to each well.
9. Add 18 μL of 1:20 diluted Compound/Extract dilution (from step 7) to each well plus the 1:20 dimethylsulfoxide dilution to the control wells (+/-VEGF), for a final dilution of 1:200 after cell stimulation. Final dimethylsulfoxide is 0.5%. Incubate the plate at 37° C., 5% CO2 for two hours.
10. Remove unbound antibody from ELISA plates by inverting plate to remove liquid. Wash 3 times with TBSW+0.5% ethanolamine, pH 7.0. Pat the plate on a paper towel to remove excess liquid and bubbles.
11. Block plates with TBSW+0.5% Ethanolamine, pH 7.0, 150 μL per well. Incubate plate thirty minutes while shaking on a microtiter plate shaker.
12. Wash plate 3 times as described in step 10.
13. Add 0.5 μg/well affinity purified […] polyclonal rabbit antiserum. Bring final volume to 150 μL/well with TBSW+0.5% ethanolamine pH 7.0. Incubate plate for thirty minutes while shaking.
14. Add 180 μL starvation medium to the cells and stimulate cells with 20 μL/well 10.0 mM sodium ortho vanadate and 500 ng/mL VEGF (resulting in a final concentration of 1.0 mM sodium ortho vanadate and 50 ng/mL VEGF per well) for eight minutes at 37° C., 5% CO2. Negative control wells receive only starvation medium.
15. After eight minutes, media should be removed from the cells and washed one time with 200 μL/well PBS.
16. Lyse cells in 150 μL/well HNTG while shaking at room temperature for five minutes. HNTG formulation includes sodium ortho vanadate, sodium pyro phosphate and EDTA.
17. Wash ELISA plate three times as described in step 10.
18. Transfer cell lysates from the cell plate to ELISA plate and incubate while shaking for two hours. To transfer cell lysate pipette up and down while scrapping the wells.
19. […]
On the technique in general: In an ELISA, binding on a coated surface is turned into a signal by an enzyme label.

Experiment [1] has as its system MCK-10 chimera (human MCK-10 transmembrane and cytoplasmic domains fused to chicken TRKA extracellular domain). Description: Chimeric receptor activation in infected C6 glioma cells (anti-phosphotyrosine immunoblot), MCK-10 chimera. To be noted: 50 ng/mL NGF, before or after incubation. As for the experimental part:
(§1) DNA constructs were generated, which encoded the transmembrane and cytoplasmic domains from human MCK-10, C-RET, mouse SEK, and rat TRKA fused to the chicken TRKA extracellular domain. These chimeric receptor constructs were then inserted into the adenovirus transfer vector, and recombinant viruses were generated and purified. Rat C6 glioma cells were infected with the recombinant viruses, and the resulting chimeric receptors were analyzed via immunoblot analysis.
(§2) The ability to activate the chimeras was evaluated by incubating the infected C6 monolayers with 50 ng/mL NGF for five minutes. The receptors were immunoprecipitated with the CTA antibody, immunoblotted, and probed either with the anti-phosphotyrosine antibody 4G10 or with the CTA antibody preparation.
(§3) C6 glioma cells were grown in Ham's Flo medium containing 10% fetal calf serum; for receptor activation experiments the medium was changed to 0.5% fetal calf serum 12 hours prior to stimulation.
(In western blotting, separated proteins are transferred to a membrane and probed.)

A further experiment concerns rat trkA receptor. Description: Receptor phosphorylation in cells expressing both rat and chicken trkA, rat receptor. On the procedure: (§4) The assumption was tested by expressing both rat and chicken trkA receptors in the same cell and activating them with either neurotrophic growth factor (NGF), which binds both receptors, or with the CTA antibody, which binds only the chick receptor. […] The effects of the CTA antibody preparation were therefore not attributable to activation of endogenous trkA receptors.
(§5) The conditions for immunoprecipitation and immunoblotting used in the experiments were described previously (Clary et al., 1994, Mol. Biol. Cell 5: 549-563) with modifications as follows. Immunoblots were performed in Tris-buffered saline containing 0.1% Triton X-100, and filter blocking and antibody incubations were performed in the same buffer with 1% BSA. In other experiments, anti-phosphotyrosine detection was performed with biotinylated-4G10 monoclonal antibody followed by a peroxidase avidin-biotin complex. Other antibodies were detected with peroxidase coupled anti-mouse IgG, anti-rabbit IgG, or protein A as indicated. All peroxidase conjugates were detected using a chemiluminescence protocol (Pierce Chemical Co. Rockford, Ill.).

For experiment [2], the system named is sek chimera (mouse SEK transmembrane and cytoplasmic domains fused to chicken TRKA extracellular domain). Description: Chimeric receptor activation in infected C6 glioma cells (anti-phosphotyrosine immunoblot), sek chimera. The settings on record: 50 ng/mL NGF, five minutes. As for the experimental part: as §1, §2, §3
A further experiment concerns chicken trkA receptor. Description: Receptor phosphorylation in cells expressing both rat and chicken trkA, chick receptor. The settings on record: NGF or CTA. As for the experimental part: as §4, §5
Experiment [3] deals with c-ret chimera (human C-RET transmembrane and cytoplasmic domains fused to chicken TRKA extracellular domain). As to the kind of experiment: Chimeric receptor activation in infected C6 glioma cells (anti-phosphotyrosine immunoblot), c-ret chimera. The settings on record: 50 ng/mL NGF, five minutes. On the procedure:
as §1, §2, §3

Where only a bound is given, the exact number is not on record here.

In the experiment with FLK-1 receptor, `CCc1cc(CC)c(/C=C2\C(=O)Nc3ccc(C(=O)O)cc32)[nH]1` [Indolinone 2] gave an EC200 of 2.8 µM. The same measure, in the same setting: then `Cc1cc(C)c(/C=C2\C(=O)Nc3ccc(CCC(=O)O)cc32)[nH]1` [Indolinone 3], with 32 µM; and `Cc1ccc(/C=C2\C(=O)Nc3ccc(CCC(=O)O)cc32)s1` [Indolinone 5], with above 100 µM. With `CC(C)c1cc(C(C)C)c(/C=C2\C(=O)Nc3ccc(C(=O)O)cc32)[nH]1` [Indolinone 1], the EC200 with FLK-1 receptor was determined as 10 µM. Consider `Cc1ccc(/C=C2\C(=O)Nc3ccc(C(=O)O)cc32)s1` [Indolinone 6], for which the EC200 in the experiment on FLK-1 receptor amounted to 46 µM.

As for “NGF: nerve growth factor, which binds to the extracellular region of the TRK receptor”, in experiment [1], the “phosphotyrosine of MCK-10 chimeric protein” value is listed as “Phosphotyrosine was not detected”. Further, in the experiment on rat trkA receptor, the “activation of the rat receptor” value is given as “activation of the rat receptor was detected only after NGF addition”. In experiment [2], the “activation of sek chimera” value is “NGF-dependent activation of the c-ret and sek chimeras was detected”. Besides, the “phosphorylation of the chick receptor” value with chicken trkA receptor is on record as “became phosphorylated”. In addition, the “activation of c-ret chimera” value in experiment [3] was “NGF-dependent activation of the c-ret and sek chimeras was detected”. As to `Cc1cc(C)c(/C=C2\C(=O)Nc3ccc(C(=O)O)cc32)[nH]1` [Indolinone 4], the EC200 in the experiment on FLK-1 receptor turned out to be 2.8 µM.
